Data: patent US4073888A, “Chlorine dioxide and quaternary ammonium salts as sterilizing agents” (priority 1975, dated 1978)
“Also recorded” adds a separate entry of the source.

Columns and labels:
spores [1] = assay: effectiveness of quaternary salts with chlorine dioxide; format: cell-based; details: for effectiveness with chlorine dioxide: used with chlorine dioxide for the purposes of the invention; for results with chlorine dioxide in the testing embodiments: employed with chlorine dioxide
spores [2] = details: cited from earlier work
[3] = cited from earlier work
Bacillus subtilis [4] = assay: Comparative Sporicidal Test, didecyl dimethyl ammonium chloride alone; format: cell-based, Bacillus subtilis 19659; details: ten minutes contact; for Number Positive, Tube 1 (original culture) / Number Positive, Tube 2 (subculture): of 10
Experimental: For further comparative purposes it was also decided to test the sporicidal activity of didecyl dimethyl ammonium chloride used alone and employing the bacteria and method described below.
Porcelain penicylinders (Fisher Scientific #7-907)
Incubation Time and Temperature
In the above Table 4, Tube 1 is the original culture and Tube 2 is the subculture of Tube 1.
The active ingredient in these tests was didecyl dimethyl ammonium chloride.
In the above Table 4, the identification of the 1% solution and 0.4% solution refers to the level of total quaternary compound being tested.

[5] = solutions; cited from earlier work
Bacillus subtilis [6] = assay: Comparative Sporicidal Test, chlorine dioxide alone; details: dilutions 1:10 and 1:25

CCCCCCCCCCCCCCCC[N+](C)(C)Cc1ccccc1.[Cl-] [hexadecyldimethyl benzyl ammonium chloride, reference compound]
effectiveness with chlorine dioxide (spores [1]): ineffective

CCCCCCCCCCCC(=O)OCCNC(=O)C[n+]1ccccc1 [lauric acid ester of colaminoformylmethyl pyridinium chloride, reference compound]
effectiveness with chlorine dioxide (spores [1]): ineffective

O=CCCCC=O [glutaraldehyde]
time required to kill spores (spores [2]; commercial sporicidal composition): 10 h
shelf-life after activation [3]: 14 days

CCCCCCCCCCCC[N+](C)(C)CCCCCCCC.[Cl-] [Octyl-dodecyl dimethyl ammonium chloride]
results with chlorine dioxide in the testing embodiments (spores [1]): outstanding results
effectiveness with chlorine dioxide (spores [1]): highly effective

CCCCCCCCCCCC[N+](C)(C)CCCCCCCCCCCC.[Cl-] [Didodecyl dimethyl ammonium chloride]
results with chlorine dioxide in the testing embodiments (spores [1]): outstanding results
effectiveness with chlorine dioxide (spores [1]): highly effective

CCCCCCCCCC[N+](C)(C)CCCCCCCCCC.[Cl-] [Didecyl Dimethyl Ammonium Chloride, didecyl dimethyl ammonium chloride]
Number Positive, Tube 1 (original culture) (Bacillus subtilis [4]; 0.4% solution): 0
Number Positive, Tube 2 (subculture) (Bacillus subtilis [4]; 0.4% solution): 10
Number Positive, Tube 1 (original culture) (Bacillus subtilis [4]; 1% solution): 0
Number Positive, Tube 2 (subculture) (Bacillus subtilis [4]; 1% solution): 9
sporicidal activity (conclusion) (Bacillus subtilis [4]; used alone, 1% and 0.4%): poor sporicidal activity; also recorded: only a static effect and not a cidal effect; also recorded: not sporicidal
results with chlorine dioxide in the testing embodiments (spores [1]): outstanding results
effectiveness with chlorine dioxide (spores [1]): highly effective

CCCCCCCCCC[N+](C)(C)CCCCCCCC.[Cl-] [Octyl-decyl dimethyl ammonium chloride]
results with chlorine dioxide in the testing embodiments (spores [1]): outstanding results

[O][Cl+][O-] [chlorine dioxide]
sporicidal activity (spores [2]; alone in aqueous solutions): not sporicidal
bactericidal, fungicidal, taste and odor control properties [5]: excellent bactericidal, fungicidal, and taste and odor control properties
outcome before 21 day observation period (Bacillus subtilis [6]): failed completely
sporicidal activity (conclusion) (Bacillus subtilis [6]; 2-12 hours contact): does not show satisfactory sporicidal activity; also recorded: failure as a sporicide
sporicidal test outcome (Bacillus subtilis [6]; twelve hours contact): not passed

CCCCCCCCCCCCCCCC[N+](C)(C)C.[Br-] [cetyl trimethyl ammonium bromide, reference compound]
effectiveness with chlorine dioxide (spores [1]): ineffective
